Biological target: T1, AvrB (Pseudomonas savastanoi, UniProt P13835)
T1 construct: recombinant in E. coli BL21 Rosetta from pProEX-HTa; N-terminal His tag removed with TEV protease; residues 16 to 319 modelled in the ADP complex; 36 kDa
Assay: X-ray crystallography, crystal soak
Type: binding
Settings: 5 mM nucleotide soak about 1 d, pH 7.5, with and without 5 mM MgCl2; lower lobe pocket (Y65, R99, R266)

T1 sequence (P13835 whole entry, the tested form may be a part): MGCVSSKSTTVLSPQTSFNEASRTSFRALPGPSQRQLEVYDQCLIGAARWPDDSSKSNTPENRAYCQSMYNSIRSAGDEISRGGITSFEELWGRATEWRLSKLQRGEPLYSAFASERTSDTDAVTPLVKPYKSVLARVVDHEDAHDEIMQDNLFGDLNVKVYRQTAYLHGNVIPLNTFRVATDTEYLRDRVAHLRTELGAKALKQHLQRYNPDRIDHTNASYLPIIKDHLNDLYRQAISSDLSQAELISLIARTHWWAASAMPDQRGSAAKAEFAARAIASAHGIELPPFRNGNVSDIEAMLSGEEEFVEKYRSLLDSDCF

Nc1ncnc2c1ncn2[C@@H]1O[C@H](COP(=O)(O)OP(=O)(O)O)[C@@H](O)[C@H]1O [ADP]
X-ray crystallography, crystal soak: We found that crystallized AvrB could bind ADP within the lower lobe pocket
